Experimental data as given in patent US8304382B2, “Anti-inflammatory and anti-allergic cyclic peptides” (Cristalia Productos Quimicos Farmaceuticos Ltda., priority 2006, dated 2012).

Tested on: leukocyte rolling in post-capillary venules of the cremaster muscle
Conditions: topical, LPS-induced rolling; FIG. 2 and 3

Substance: Ile1-Pro2-Arg3-Cys4-Arg5-Lys6-Met7-Pro8-Gly9-Val10-Ala11-Met12-Cys13 [SEQ ID NO: 10]
- inhibition of leukocyte rolling (in words): not efficient
